The values that follow come from patent publication US20250353828A1, “SUBSTITUTED BIARYL ENDOCHIN-LIKE QUINOLONES WITH ENHANCED ANTIPARASITIC ACTIVITY” (Oregon Health & Science University, priority 2022, published 2025).

The target in series [1] is T1, human liver cytochrome bc1 complex (Homo sapiens, UniProt P00156).
T1 construct: human host cytochrome bc1 complex isolated from human liver tissue; from tissue; host or cells: human liver tissue
As to conditions: data taken from Nilsen et al., 2013 (a) or Frueh et al., 2017 (b); cited from earlier work.

Series [2] deals with P. falciparum D1 clone (ELQ-300 resistant). The series is described as follows: microbe, parasite or virus in culture. Type of series: cell-based. Conditions: Plasmodium falciparum, 72 h, read-out: P. falciparum IC50 values, nM D1.
In series [3] the test system is P. falciparum Dd2 strain (multidrug resistant). The series is described as follows: microbe, parasite or virus in culture. Type of series: cell-based, Plasmodium falciparum. Conditions: Plasmodium falciparum, DD2, 72 h, read-out: P. falciparum IC50 values, nM Dd2. Here is the method: (§1) Rationale for Synthesis of a 3-Biaryl Version of ELQ-300. […] All of this information is stored in a database with information relating to chemical structure, physical chemical properties, cross resistance patterns, mammalian cell cytotoxicity, enzyme inhibitor profiles, and synthesis details. […] We employed the SyBr Green assay and the plates were incubated for 72 hours before harvesting^18, 19. […] Stock solutions were freshly prepared in DMSO.
(§2) Plasmodium falciparum Culture. Laboratory strains of P. falciparum were cultured in human erythrocytes by standard methods. The parasites were grown in culture medium with fresh human erythrocytes maintained at 2% hematocrit at 37° C. in low-oxygen conditions (5% O2, 5% CO2, […] balance N2). […] Cultures were maintained at less than 10% parasitemia by transfer of infected cells to fresh erythrocytes and culture medium every 3 or 4 days.
(§3) In vitro drug susceptibility assays. SYBR green I assay. In vitro antiplasmodial activity was assessed using a published SYBR Green I fluorescence-based method. The drugs were added to 96-well plates using 2-fold serial dilutions in complete medium. […] Asynchronous P. falciparum parasites were diluted with uninfected erythrocytes and added to the wells to give a final culture volume of 100 μl at 2% hematocrit and 0.2% parasitemia. […] The parasites were then lysed by adding 100 μl of SYBR green I lysis buffer containing 0.2 μl/ml SYBR green I dye (10,000×) in 20 mM Tris (pH 7.5), 5 mM EDTA, 0.008% (wt/vol) saponin, and 0.08% (vol/vol) Triton X-100. The plates were incubated at room temperature for an hour in the dark. […] If the IC50 value fell outside of the initial tested range then the range was adjusted up or down and the assay was repeated.

Series [4] relates to P. yoelii (Kenya Strain) blood stage infection in mice. The series is described as follows: 4-day Peters test against murine malaria. Type of series: in vivo. Conditions: P. yoelii in mice, oral gavage in PEG400 on Days 1-4; prodrugs dosed on molar equivalency to parent drug. As to the method: On Day 5 a drop of blood was taken from the tail and a blood smear was prepared, fixed with methanol, and stained with Giemsa. The operator then examined the stained smear microscopically to determine percent parasitemia. Dosages of 0.0025, 0.005, 0.01, 0.03, 0.1, 0.3, 1.0 and 10 mg/kg/day were used for the experiment. […] In this model animals were inoculated exactly as for the 4-day test on Day 0 however drug was administered only on Day 1 while the operator made smears on Day 5 and again weekly thereafter for animals that remained aparasitemic. Animals that remained aparasitemic out to […] were scored as cures.
In Vivo Efficacy against Murine Malaria. The P. yoelii 4-day test monitors suppression of patent infection in female CF1 mice. The test began with the inoculation (iv) of parasitized erythrocytes (3.5×10^4/P. yoelli) (from a donor animal) on the first day of the experiment (D0). […] Initially the 3-biaryl-ELQs were tested at doses of 0.0025, 0.005, 0.01, 0.03, 0.1, 0.3, 1.0 and 10 mg/kg/day, including a vehicle-only (PEG400) control. After completion of drug treatment, a blood sample was collected (by pricking the tail vein) for determination of parasite burden beginning on the day after the final dose (D5). Percent parasitemia is assessed by direct microscopic analysis of Giemsa-stained blood smears. […] Animals with observable parasitemia following the experiment were euthanized; animals cleared of parasites from the bloodstream were observed daily with assessment of parasitemia performed weekly until day 30, at which point the animal(s) were scored as cured of infection. […] Non-linear regression analysis is used for objective determination of ED50's and ED90's from the accumulated data as well as the Non-Recrudescence Dose (NRD). The 4-day test protocol was reviewed and approved by the local IACUC board at the Portland VA Medical Center. Experiments were performed with 4 mice per group to ensure statistical accuracy.

Series [5] deals with P. falciparum Tm90-C2B (atovaquone-resistant clinical isolate). The series is described as follows: In vitro antiplasmodial activity, SYBR Green I assay, Tm90-C2B. Conditions: Plasmodium falciparum, read-out: P. falciparum IC50 values, nM Tm90-C2B. In kind it is cell-based. Here is the method:
as §1, §2, §3

The subject of series [6] is P. yoelii blood stage infection in mice. The series can be described thus: In vivo single-dose cure against murine malaria. Conditions: lowest single dose that cures all 4 mice; P. yoelii, dose on Day 1; prodrugs dosed on molar equivalency to parent drug. As to the method: Animals that remained aparasitemic out to […] were scored as cures.
In Vivo Single-Dose Efficacy against Murine Malaria. The effectiveness of selected 3-biarylELQs and prodrugs was assessed vs. the blood stage infection for single dose cures. Mice are infected iv with 3.5×10^4 P. yoelii infected RBCs as described for the 4-day test above. Drug administration occurred on the day after inoculation (Day 1). Test agents were dissolved in PEG-400 and administered ig once. On the 5th day blood films were prepared and % parasitemia was assessed. Animals remaining parasite-free for 30 days after drug administration were considered cured. The initial dosing range was: 0.5, 1, 2.5, 5, 10 mg/kg, including a control. Experiments were performed with 4 mice per group to ensure statistical accuracy. The reported parameter for these studies is the lowest single dose that provides a cure to all 4 animals in the group.

In series [7] the test system is P. falciparum D6 strain (drug sensitive). The series is described as follows: In vitro antiplasmodial activity, SYBR Green I assay, D6 strain. Type of series: cell-based, Plasmodium falciparum. Conditions: for IC50: Plasmodium falciparum, read-out: P. falciparum IC50 values, nM D6. Here is the method:
as §1, §2, §3

The target in series [8] is T2, P. falciparum cytochrome bc1 complex (Plasmodium falciparum, UniProt Q02768).
T2 construct: endogenous in cells
T2 sequence (Q02768 1-376): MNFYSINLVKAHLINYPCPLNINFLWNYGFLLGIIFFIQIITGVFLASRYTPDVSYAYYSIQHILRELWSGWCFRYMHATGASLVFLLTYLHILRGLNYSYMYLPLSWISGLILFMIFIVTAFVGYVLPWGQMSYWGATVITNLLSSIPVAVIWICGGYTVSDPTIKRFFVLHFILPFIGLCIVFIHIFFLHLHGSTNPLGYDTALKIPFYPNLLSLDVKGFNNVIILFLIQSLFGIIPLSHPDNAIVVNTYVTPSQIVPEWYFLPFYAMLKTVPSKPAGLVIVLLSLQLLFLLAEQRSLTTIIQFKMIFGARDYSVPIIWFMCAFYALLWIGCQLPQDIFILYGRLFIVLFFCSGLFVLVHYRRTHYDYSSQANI
As to conditions: data taken from Nilsen et al., 2013 (a) or Frueh et al., 2017 (b); cited from earlier work.

A short description of series [9]: Murine microsomal metabolic stability. As to conditions: for half-life at 1 μM: pH 7.4, T1/2 (minutes).
Excerpt: Ketanserin served as an internal standard for the metabolic rate of a known drug with known intermediate stability.
Imipramine or Osalmid were used as internal standards, and ketanserin was used as a control drug with intermediate stability.
Series [10] is described as follows: HepG2 cytotoxicity, TiterGlo ATP luminescence, galactose medium. Type of series: cell-based, human. As to conditions: human; HepG2, galactose medium, 48 hours; read-out: EC50 (cytotoxicity). As to the method:
(§4) […]. Of course, enhanced potency is desirable only if unaccompanied by enhanced toxicity. […] […]. The incubation period for these experiments was 48 hours.

The next series concerns HepG2 cells. Described as above. In kind it is cell-based, human. Here is the method:
as §4

In series [11] the target is T1, human liver cytochrome bc1 complex. The series can be described thus: Inhibition of human cytochrome bc1 complex. In kind it is biochemical. Conditions: complex isolated from human liver tissue. The text has this:
Human Cytochrome bc1 Assays.

Series [12] deals with T2, P. falciparum cytochrome bc1 complex. The series is described as follows: biochemical. As to conditions: cytochrome bc1 activity from P. falciparum mitochondria. An excerpt: Isolation of Plasmodium falciparum Mitochondria and Ubiquinol-Cytochrome c Oxidoreductase Assay.
[13] abbreviates: Tm90-C2B strain, 72 h incubation, averages of quadruplicate with (95% confidence intervals).
The mark [14] stands for this setting: D6 strain, 72 h incubation, averages of quadruplicate with (95% confidence intervals).
[15] abbreviates: mouse, pooled liver microsomes, murine liver microsomes 0.5 mg/ml, 37° C., NADPH, 45 minutes.

Where two headings read alike, the source gives them in different places.

As for `O=C1C(O)=C([C@H]2CC[C@H](c3ccc(Cl)cc3)CC2)C(=O)c2ccccc21` [Atovaquone, reference compound], the IC50 in series [1] is 460 nM; in series [2], 0.4 nM; in series [3], 0.4 nM; in series [5] (setting [13]) it was greater than 1000 nM; in series [7] (setting [14]) it was 0.08 nM. The “4-day Peters Test Results ED50” value in series [4] worked out at 0.1 mg/kg/day. Besides, in [4], the “4-day Peters Test Results NRD (non-recrudescence dose)” value is recorded as 10 mg/kg/day. Besides, the Single dose cure in [6] is 10 mg/kg/day.
With `CCN(CC)CCCC(C)Nc1ccnc2cc(Cl)ccc12` (stereo not shown) [CQ, chloroquine, reference compound], the “4-day Peters Test Results NRD (non-recrudescence dose)” value in [4] was greater than 64 mg/kg/day. The Single dose cure in [6] is greater than 64 mg/kg/day.
Regarding `CCOC(=O)OCOc1c(-c2ccc(Oc3ccc(OC(F)(F)F)cc3)cc2)c(C)nc2cc(OC)c(Cl)cc12` [ELQ-331, reference compound], the IC50 in series [1] is greater than 10000 nM; in series [8] it was 5300 nM. Moreover, in series [4], the “4-day Peters Test Results ED90” value was found to be 0.05 mg/kg/day. The “4-day Peters Test Results NRD (non-recrudescence dose)” value in series [4] is given as 1.0 mg/kg/day. Besides, the Single dose cure in series [6] worked out at 3 mg/kg/day.
In series [9] (mouse, pooled liver microsomes, pH 7.4), `COc1cc2[nH]c(C)c(-c3ccc(-c4ccc(OC(F)(F)F)cc4)cc3)c(=O)c2cc1Cl` [ELQ-596, 6-chloro-7-methoxy-2-methyl-3-(4′-(trifluoromethoxy)-[1,1′-biphenyl]-4-yl)quinolin-4(1H)-one] registered an intrinsic metabolic clearance (CLint scaled) at 1 μM of 1.15 mL/min/kg. In [9] (setting [15]), this compound showed a half-life at 1 μM greater than 66.7 h. In [9] (murine liver microsomes 0.5 mg/ml, 37° C., NADPH, 45 minutes), the “T1/2 (minutes)” value is given as 4,260 minutes. Further, the IC50 in [3] is 0.4 nM; in series [11], greater than 10000 nM; in series [12], 0.1 nM; in series [5] (TM90, 72 h), 0.2 nM; in series [7] (D6, 72 h) it was 0.3 nM. Further, the “4-day Peters Test Results ED50” value in series [4] is listed as 0.01 mg/kg/day. Besides, the “4-day Peters Test Results ED90” value in [4] worked out at 0.021 mg/kg/day. The “4-day Peters Test Results NRD (non-recrudescence dose)” value in [4] was found to be 0.3 mg/kg/day. For the same compound, the EC50 at 48 h in series [10] was greater than 10000 nM. The compound also yielded an EC50 in the series on HepG2 cells (medium with galactose instead of glucose) greater than 10000 nM. Further, the “improvement of IC50 values over ELQ-300” value in series [7] (D6 and Dd2 strains as well as C2B) is recorded as 8- to 10 fold.
Consider `COc1ccc2c(=O)c(-c3ccc(-c4ccc(OC(F)(F)F)cc4)cc3)c(C)[nH]c2c1` [ELQ-685, 7-Methoxy-2-methyl-3-(4′-(trifluoromethoxy)-[1,1′-biphenyl]-4-yl)quinolin-4(1H)-one], for which the IC50 in series [2] was determined as 3.5 nM; in series [3], 8.5 nM; in series [5] (setting [13]), 5.2 nM; in series [7] (setting [14]), 5.8 nM. Moreover, the half-life at 1 μM in [9] (setting [15]) was greater than 66.7 h.
For the compound `CCOC(=O)OCOc1c(-c2ccc(-c3ccc(OC(F)(F)F)cc3)cc2)c(C)nc2cc(OC)ccc12` [ELQ-695, Ethyl (((7-methoxy-2-methyl-3-(4′-(trifluoromethoxy)-[1,1′-biphenyl]-4-yl)quinolin-4-yl)oxy)methyl) carbonate], the IC50 in [2] was determined as 8.4 nM; in [3] it was 22.3 nM; in series [5] (setting [13]), 10.1 nM; in [7] (setting [14]), 20.9 nM. The compound further yielded a half-life at 1 μM in [9] (setting [15]) greater than 66.7 h. Moreover, the “4-day Peters Test Results ED50” value in series [4] was 0.2 mg/kg/day. Further, in series [4], the “4-day Peters Test Results ED90” value was determined as 0.3 mg/kg/day. The “4-day Peters Test Results NRD (non-recrudescence dose)” value in [4] was determined as 3.7 mg/kg/day.
With `C=C(C)[C@H]1Cc2c(ccc3c2O[C@@H]2COc4cc(OC)c(OC)cc4[C@@H]2C3=O)O1` [rotenone, reference compound], in the series with HepG2 cells (HepG2, galactose medium, 48 hours), the “EC50 (cytotoxicity)” value is “quite cytotoxic”.

A word on the IC50: it is the concentration that inhibits the measured activity by half. The CLint scaled is the rate of metabolic loss divided by the concentration. A higher CLint scaled goes with rapid turnover. Usually half-life stands for the time needed for the level to fall by half in the phase considered. The term EC50 denotes the concentration giving half of the maximal effect.
